Counter-ions that a name gives are not always drawn.
Experiments:
[1] = test system: gap junction dye transfer from astrocytes to MDA231-BrM2 cells; assay: Dye transfer assay (calcein) from astrocytes to cancer cells, flow cytometry; type: cell-based, human; conditions: for dye transfer from astrocytes to cancer cells: MDA231-BrM2 cells, flow cytometry, FIG. 5a
Protocol: Dye Transfer and EdU Transfer Assays.
Monolayers of cancer cells or astrocytes were labeled with 2.5 gig/ml calcein Red-Orange AM dye (Life Technologies) at 37° C. for 30 min. Single cell suspensions were mixed at a ratio of 2:1 labeled:unlabeled cells for 6 h. Certain experiments used a mix of three cell populations, MDA231-BrM2 (GFP+), HBMEC (pre-labeled with Cell Proliferating Dye Fluor@670, eBioscience), and unlabeled astrocytes. Dye transfer was visualized by Zeiss LSM 5 Live confocal microscopy (20-min time-lapse) or quantified by FACSCalibur flow cytometry (BD Biosciences) at different time points. For DNA transfer assays, cancer cells were labeled overnight with EdU (10 μM, Molecular Probes) and maintained in culture for additional 3 days. Single cell suspensions of labeled cancer cells and astrocytes were mixed at 2:1 ratio for 6 h. EdU transfer was visualized using Zeiss LSM 5 Live confocal microscopy or quantified by FACSCalibur flow cytometry (BD Biosciences) following the manufacturer's instructions (Molecular Probes).

[2] = test system: release of IFNα and TNFα in co-cultures of astrocytes and cancer cells; assay: ELISA of IFNα and TNFα in conditioned media from MDA231-BrM2 cell and astrocyte co-cultures; type: cell-based, human; conditions: FIG. 5b
Protocol: Cancer Cell and Astrocyte Co-Culture Experiments.
Astrocytes and cancer cells were mixed at ratio of 1:1. For apoptosis assays, overnight co-cultures were treated with 500 ng/ml sFasL (Peprotech) in serum free media, 500 nM carboplatin (Sigma-Aldrich) or 25 nM Paclitaxel (Sigma-Aldrich) for 24 h. Single cell suspensions were stained with APC-conjugated cleaved caspase 3 antibody (Cell Signaling), apoptotic GFP+ cancer cells were detected by flow cytometery. For translating ribosome affinity purification (TRAP), EGFP-L10a expressing cancer cells were co-cultured with astrocytes for 24 h. Following previously published protocols, (Heiman, Schaefer et al. 2008, Zhang, Jin et al. 2013) mRNA purified from cancer cells were was used for library construction with TruSeq RNA Sample Prep Kit v2 (Illumina) following the manufacturer's instructions. Samples were barcoded and run on a Hiseq 2000 platform in a 50 bp/50 bp paired-end run, using the TruSeq SBS Kit v3 (Illumina). An average of 50 million paired reads were generated per sample. For conditioned media analysis, media were collected after 24 h, and cytokines in the conditioned media were either identified using Human Cytokine Array (R&D systems) or measured by IFNα or TNFα ELISA kits (R&D systems). To detect the activity of IFNα or TNFα in the collected conditioned media, cancer cells were treated with the collected conditioned media for 2 h and phosphorylation status of STAT1 or NF-κB p65 was determined by western blotting. For cGAMP and […] activation experiments, cancer cells and astrocytes were co-cultured for 18 h. The phosphorylation status of TBK1, IRF3 was determined by western immunoblotting. Nuclear translocation of IRF3 was determined by immunofluorescence staining with Zeiss LSM 5 Live confocal microscopy. cGAMP levels were determined by LC-MS/MS.

[3] = test system: MDA231-BrM2 cells, H2030-BrM3 cells, KRas/p53-393N1 cells (brain metastases); assay: Brain metastasis assay, drug given daily from day 1 after arterial inoculation of cancer cells, BLI; type: in vivo; conditions: treated from day 1; MDA231-BrM2 or H2030-BrM3 in immunodeficient mice, KRas/p53-393N1 in immunocompetent mice; Tonabersat 10 mg/kg/day, meclofenamate 20 mg/kg/day i.p.
Protocol: (§1) All experiments using animals were done in accordance to protocols approved by the MSKCC Institutional Animal Care and Use Committee. Athymic NCR nu/nu mice (NCI-Frederick), Cr:NIH bg-nu-xid mice (NCI-Frederick) and B6129SF1/J mice (Jackson Laboratory) were use at 5-6 weeks of age. For long-term brain metastasis assays we followed previously described procedures (Bos, Nguyen et al. 2010). In brief, 10^4 MDA231-BrM2 cells, 5×10^4 H2030-BrM3 cells, or 10^5 393N1 cells suspended in 100 μl of PBS were injected into the left cardiac ventricle. At the experimental endpoint, anesthetized mice (ketamine 100 mg/kg, xylazine 10 mg/kg) were injected retro-orbitally with D-luciferin (150 mg/kg), and brain colonization was quantified by ex vivo Bio-luminescent imaging (BLI). For short-term (7-day and 14-day) brain metastasis experiments, we injected 5×10^5 cells. TRITC dextran (70 KD) (Life Technologies) was intravenously injected to stain vascular structures. For inducible knockdown experiments, mice were given doxycycline hyclate (Sigma-Aldrich) in the drinking water (2 mg/mL) and the diet (Harlan) 14 days after injection of cancer cells. For lung colonization assays, 2×10^5 MDA231-BrM2 cells in 100 piL PBS were injected into the lateral tail vein. […] BLI was performed using an IVIS Spectrum Xenogen instrument (Caliper Life Sciences) and analysed using Living Image software, v. […]

[4] = test system: MDA231-BrM2 cells as lung metastatic lesions; assay: Lung colonization assay, MDA231-BrM2 cells, BLI; type: in vivo, mice; conditions: FIG. 15d; same treatment from day 1
Protocol: as §1

[5] = test system: MDA231-BrM2 cells as orthotopic tumours; assay: Orthotopic tumour implantation in mammary fat pad, BLI; type: in vivo, mice; conditions: FIG. 15c, same treatment
Protocol: as §1

[6] = test system: MDA231-BrM2 cells (brain metastatic lesions); assay: Established brain metastasis treatment, starting 14 days after inoculation with MDA231-BrM2 cells, BLI; type: in vivo, mice; conditions: for progression of brain metastatic lesions (BLI): treatment from day 14, 35-day end point, Tonabersat 10 mg/kg, meclofenamate 20 mg/kg, carboplatin 50 mg/kg/5 days, FIG. 5h,i
Protocol: All experiments using animals were done in accordance to protocols approved by the MSKCC Institutional Animal Care and Use Committee. Athymic NCR nu/nu mice (NCI-Frederick), Cr:NIH bg-nu-xid mice (NCI-Frederick) and B6129SF1/J mice (Jackson Laboratory) were use at 5-6 weeks of age. For long-term brain metastasis assays we followed previously described procedures (Bos, Nguyen et al. 2010). In brief, 10^4 MDA231-BrM2 cells, 5×10^4 H2030-BrM3 cells, or 10^5 393N1 cells suspended in 100 μl of PBS were injected into the left cardiac ventricle. At the experimental endpoint, anesthetized mice (ketamine 100 mg/kg, xylazine 10 mg/kg) were injected retro-orbitally with D-luciferin (150 mg/kg), and brain colonization was quantified by ex vivo Bio-luminescent imaging (BLI). For short-term (7-day and 14-day) brain metastasis experiments, we injected 5×10^5 cells. TRITC dextran (70 KD) (Life Technologies) was intravenously injected to stain vascular structures. For inducible knockdown experiments, mice were given doxycycline hyclate (Sigma-Aldrich) in the drinking water (2 mg/mL) and the diet (Harlan) 14 days after injection of cancer cells. For lung colonization assays, 2×10^5 MDA231-BrM2 cells in 100 piL PBS were injected into the lateral tail vein. For orthotopic tumour implantation, 5×10^3 cells in 50 piL of 1:1 mix of PBS/growth factor reduced matrigel (BD Biosciences) were injected into the 4th right mammary fat pad of female mice. For drug treatment experiments, mice were intraperitoneally injected with carboplatin (Hospira) (50 mg/kg/5 days), Tonabersat (MedChem Express) (10 mg/kg/day), or meclofenamic acid sodium salt (Sigma-Aldrich) (20 mg/kg/day). Vehicle (10% DMSO in Polyethylene glycol 400) was used in control mice. BLI was performed using an IVIS Spectrum Xenogen instrument (Caliper Life Sciences) and analysed using Living Image software, v. 2.50. For brain metastasis assays, 8-10 mice were used in each group. For drug treatment experiments, mice were inoculated with cancer cells and randomly assigned to treatment groups. Gap junction modulators and chemotherapeutic agents were blindly administered in the MSKCC Antitumour Assessment Core.

[7] = test system: Cx43 gap junction; conditions: cited from earlier work
[8] = test system: epileptogenesis; conditions: in vivo; cited from earlier work
[9] = after systemic administration; cited from earlier work
[10] = cited from earlier work
[11] = in vivo; cited from earlier work
[12] = test system: brain metastases from breast or lung cancer; conditions: cited from earlier work
[13] = test system: unique stereoselective binding site in astrocytes; conditions: cited from earlier work
[14] = test system: cortical spreading depression; conditions: gap-junction-mediated pathophysiological process; cited from earlier work
[15] = test system: trigeminal ganglion neuronal-satellite cell signaling; conditions: animal models; cited from earlier work

| Compound | dye transfer from astrocytes to cancer cells [1] | release of IFNα in co-cultures [2] | release of TNFα in co-cultures [2] | emergence of brain metastases (BLI) [3] | growth of MDA231-BrM2 cells as lung metastatic lesions [4] | growth of MDA231-BrM2 cells as orthotopic tumours [5] | progression of brain metastatic lesions (BLI) [6] | Cx43 gap junction gating [7] | epileptogenesis in animal models [8] | passage of the BBB [9] | systemic tolerability ([10]; in vivo) | oral bioavailability [11] | brain metastasis (BLI) in inducible shRNA experiment ([6]; carboplatin alone 50 mg/kg/5 days starting on day 14, compared with depletion of Cx43 or PCDH7, FIG. 5f,g) | overall survival in patients with brain metastases [12] | dye transfer from astrocytes to MDA231-BrM2 cells, compared with Cx43 depletion ([1]; Carbenoxolone 50 uM, FIG. 8b) | tolerability and safety in patients with migraine ([10]; patients with migraine) | binding to site in astrocytes [13] | cortical spreading depression [14] | trigeminal ganglion neuronal-satellite cell signaling [15] |
| --- | --- | --- | --- | --- | --- | --- | --- | --- | --- | --- | --- | --- | --- | --- | --- | --- | --- | --- | --- |
| Cc1ccc(Cl)c(Nc2ccccc2C(=O)O)c1Cl [meclofenamate, meclofenamic acid sodium salt] | inhibited dye transfer | inhibited | inhibited | prevented the emergence of brain metastases | did not restrict growth | did not restrict growth | significantly inhibited progression of metastatic lesions | inhibits Cx43 gap junction gating | inhibits epileptogenesis | passes the BBB | well tolerated systemically | orally bioavailable | – | – | – | – | – | – | – |
| N.N.O=C([O-])C1(C(=O)[O-])CCC1.[Pt+2] [carboplatin] | – | – | – | – | – | – | minimally inhibited brain metastasis growth | – | – | crosses the BBB | – | – | inhibited brain metastasis to a similar extent as depletion of Cx43 or PCDH7 | modest improvement in overall survival | – | – | – | – | – |
| CC1(C)[C@@H](OC(=O)CCC(=O)O)CC[C@]2(C)[C@H]3C(=O)C=C4[C@@H]5C[C@@](C)(C(=O)O)CC[C@]5(C)CC[C@@]4(C)[C@]3(C)CC[C@@H]12 [carbenoloxone, carbenoxolone] | – | – | – | – | – | – | – | – | – | – | – | – | – | – | extent of dye-transfer inhibition after Cx43 depletion was comparable | – | – | – | – |
| CC(=O)c1ccc2c(c1)[C@H](NC(=O)c1ccc(F)c(Cl)c1)[C@H](O)C(C)(C)O2 [Tonabersat] | inhibited dye transfer | inhibited | inhibited | prevented the emergence of brain metastases | did not restrict growth | did not restrict growth | significantly inhibited progression of metastatic lesions | – | – | – | – | orally bioavailable | – | – | – | systemically well-tolerated and safe | binds to a unique stereoselective binding site in astrocytes | inhibits | inhibits |

Reference: patent publication US11058665B2, “Methods for treating brain metastasis” (MEMORIAL SLOAN-KETTERING CANCER CENTER, priority 2014, dated 2021)
